The record followed here is patent publication US20240043859A1, “HERBICIDE-RESISTANT PROTEIN, AND GENE AND USE THEREOF” (QINGDAO KINGAGROOT CHEMICAL COMPOUND CO., LTD., priority 2020, published 2024).

For one series, the system named is Arabidopsis thaliana. Briefly: Spray testing of T2 generation transgenic Arabidopsis thaliana. The following applies: 100 g/ha foliage spray, 10 days after spraying. It is filed as in vivo. From the text: The T2 generation seedlings of four representative transformants, pQY2309, pQY2310, pQY2311 and pQY2313, were selected for further spray testing. Four lines were randomly selected from the T2 generation generated by transformation of each vector, and respectively foliage-sprayed with 2,4-D (100 g/ha), MCPA (100 g/ha) and 2,4-DB sodium (100 g/ha) when Arabidopsis thaliana seeds germinated, transplanted and the seedlings grew to 5-7 leaf. Non-transgenic wild-type Col-0 served as a negative control. The level of resistance was assessed 10 days after spraying.

A further series has as its system maize B104. Briefly: Herbicide-resistance capacity testing of transgenic maize (spray). The following applies: 4.48 kg/ha foliage spray, 14 days / 15 days. The class given is in vivo. From the text:
1. Vector construction: the overexpression vector was altered from pCambia3300, containing a Bar resistance gene that can be used as a selection marker for bialaphos (glufosinate). The AAD-like gene, QYD42, SEQ ID NO. 83, was linked to the pCambia3300 at the BamH I restriction site by seamless cloning to construct the transgenic vector pQY2329, of which the expression cassette consisted of a maize ubiquitin-1 promoter, the AAD gene and a Nos terminator, as shown in FIG. 7-1.
2. Genetic transformation of maizes: Maize transformation was carried out by the Agrobacterium-mediated immature embryo transformation method (Jones T, Lowe K, Hoerster G, et al. Maize Transformation Using the Morphogenic Genes Baby Boom and Wuschel2. Methods Mol Biol. 2019; 1864:81-93. Doi: 10.1007/978-1-4939-8778-8 6). The Agrobacterium (EHA105) comprising the pQY2329 overexpression vector was inoculated into YEP liquid medium (containing 25 mg/L Rifampicin and 50 mg/L Kanamycin), and shaking-cultured a t 28° C., 220 rmp/min overnight until the OD600 was about 1.0-1.5, then centrifuged at 6000 rmp/min for 10 min to collect the cells into a 50 ml centrifuge tube (sterilized). After discarding the supernatant, the cells were resuspended using MS infect culture medium (containing 68.5 g/L sucrose, 36 g/L glucose, pH 5.8) to OD550=0.8. […]

“Also recorded” adds a separate entry of the source.

As to `O=C(O)COc1ccc(Cl)cc1Cl` [2,4-D, (2,4-dichlorophenoxy)acetic acid, reference compound], the “Effect of the herbicide spray on wild-type Col-0” value in the series on Arabidopsis thaliana is reported as “all or almost all non-transgenic wild-type Arabidopsis thaliana died; also recorded: all die”. Besides, the “Effect of the herbicide spray on non-transgenic maize B104” value in the series with maize B104 was “apparent phytotoxicity, root nodules, reduced root system and easily-lodging plant; also recorded: stem bases of maize B104 are swollen”.
